Test results from patent US7632972B2, “Compounds and methods for treatment of cancer and modulation of programmed cell death for melanoma and other cancer cells” (The Board of Trustees of the University of Illionis, priority 2003, dated 2009).

Test system: human tumor cell lines
Test: NCI DTP 60 human tumor cell line screen (whole panel or cell lines not listed singly)
Assay type: cell-based
Details: NCI panel of human cancer cell lines
Description: Selected compounds were identified for additional testing against a panel of human cancer cell lines maintained by the National Cancer Institute.
Potential anti-cancer agents are screened, and in certain instances were screened, using a screening system provided and performed by the National Cancer Institute (NCl). See http://dtp.nci.nih.gov/docs/misc/common_files/submit_compounds.html. The Developmental Therapeutics Program (DTP) of NCl operates an anti-cancer screening program. The program accepts both natural and synthetic compounds. For screening of natural products extracts, the Natural Products Branch can be contacted.
The operation of this screen utilizes 60 different human tumor cell lines, representing leukemia, melanoma and cancers of the lung, colon, brain, ovary, breast, prostate, and kidney. The aim is to prioritize for further evaluation, synthetic compounds or natural product samples showing selective growth inhibition or cell killing of particular tumor cell lines. […]
Following drug addition, the plates are incubated for an additional 48 h at 37° C., 5% CO2, 95% air, and 100% relative humidity. […] Bound stain is subsequently solubilized with 10 mM trizma base, and the absorbance is read on an automated plate reader at a wavelength of 515 nm. […]

COc1cccc(CCNC(=O)CC(c2ccccc2)(c2ccccc2)c2ccccc2)c1 [Compound Z3]
activity against colon cancer cells: significant activity
activity against melanoma cells: significant activity
